We go through 19 compounds from patent US20260258032A1, “TYROSINE KINASE 2 INHIBITORS AND USES THEREOF” (BIOGEN MA INC., priority 2022, published 2026).

One may read the IC50 as the midpoint of a concentration-inhibition curve.

Structures can show the parent of a compound that is named as a salt. A value given as a limit tells only on which side of the number the result lay.

Assay [1] relates to JAK2 kinase activity on STAT5. Put plainly: pSTAT5 cell assay (MSD, TF1 cells, IL-3 stimulated). Format: cell-based. Particulars: Homo sapiens, TF-1, compounds 1 hour, 30 ng/mL IL-3 for 15 minutes. The protocol: Compounds of the disclosure were assessed for their ability to inhibit the JAK2 kinase activity on STAT5 utilizing an MSD-platform plate-based assay format. TF1 cells natively expressing STAT5 and JAK2 were serum-starved to reduce background phosphorylation levels, then cells were treated with compounds of disclosure for 1 hour with a 10-point four-fold dilution series starting at 10 μM. Cells were then stimulated with 30 ng/mL IL-3 for 15 minutes. Cells were then lysed and pSTAT5 levels were quantitated using an MSD plate-based assay with anti-STAT5 antibodies. The data were normalized and the percent activity versus log concentration of compound was fitted with a 4-parameter logistic model to generate a curve and an IC50 value.

The target of a further assay is T1, JH2 domain of human Tyk2 (Homo sapiens, UniProt P29597).
T1 construct: 10×His-tagged TYK2 JH2 domain (amino acid 575-876)
T1 sequence (P29597 575-876): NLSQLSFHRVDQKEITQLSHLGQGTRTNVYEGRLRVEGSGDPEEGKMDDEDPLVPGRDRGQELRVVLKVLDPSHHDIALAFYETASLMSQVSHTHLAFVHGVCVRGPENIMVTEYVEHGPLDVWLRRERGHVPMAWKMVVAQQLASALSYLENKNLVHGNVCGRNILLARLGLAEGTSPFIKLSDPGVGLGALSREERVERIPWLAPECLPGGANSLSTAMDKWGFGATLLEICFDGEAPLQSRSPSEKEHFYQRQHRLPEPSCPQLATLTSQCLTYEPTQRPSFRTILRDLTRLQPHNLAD
Put plainly: JH2 biochemical assay (TR-FRET probe displacement). Format: binding. The gist of the method:
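10×His-tagged human TYK2 JH2 (aa 575-876, 2 nM) incubated 60 min with 2 nM fluorescent probe, 0.1 nM Tb anti-His antibody and compound (10-point 3-fold series from […] top). TR-FRET 520/495 nm ratio, falling with probe displacement, normalized and fitted to a 4-parameter logistic for IC50.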

The subject of assay [2] is JAK1 kinase activity on STAT3. Put plainly: pSTAT3 cell assay (MSD, TF1 cells, IL-6 stimulated). Particulars: Homo sapiens, TF-1, compounds 1 hour, 30 ng/mL IL-6 for 15 minutes. Format: cell-based. The protocol: The inhibitory potency of compounds of the disclosure against the JAK1 kinase activity on STAT3 was evaluated using an MSD-platform plate-based assay format. TF1 cells natively expressing STAT3 and JAK1 were serum-starved to reduce background phosphorylation levels, then cells were treated with compounds of the disclosure for 1 hour with a 10-point four-fold dilution series starting at 10 μM. Cells were then stimulated with 30 ng/mL interleukin 6 (IL-6) for 15 minutes. Cells were lysed and pSTAT3 levels were quantitated using an MSD plate-based assay with anti-STAT3 antibodies. The data were normalized and the percent activity versus log concentration of compound was fitted with a 4-parameter logistic model to generate IC50 curves.

In assay [3] the test system is Tyk2 kinase activity on STAT4. Put plainly: pSTAT4 cell assay (MSD, NK92 cells). The format is cell-based. Particulars: compounds 1 hr. The gist of the method:
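IC50 values derive from 4-parameter logistic fits of normalized percent activity against log compound concentration. Phospho-STAT was measured by MSD with anti-STAT4 antibodies after 15 min of 30 ng/mL IL2 in serum-starved NK92 cells pretreated 1 hr with compound.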

As to `CNc1cc(N2CC3(CC3)c3cnc(NC(C)=O)cc32)nc(C(C)(F)F)n1` [Example 10, N-(1′-(2-(1,1-difluoroethyl)-6-(methylamino)pyrimidin-4-yl)-1′,2′-dihydrospiro[cyclopropane-1,3′-pyrrolo[3,2-c]pyridin]-6′-yl)acetamide], the half-maximal inhibitory concentration (IC50) was ≥ 1000 nM in assay [1], ≤ 10 nM at JH2 domain of human Tyk2 (JH2 biochemical assay), ≥ 1000 nM in assay [2] and 10 to 100 nM in assay [3] (stimulated 15 minutes).

For `CC(=O)Nc1cc2c(cn1)C1(CCC1)CN2c1ccnc(C(C)(F)F)n1` [Example 41, N-(1′-(2-(1,1-difluoroethyl)pyrimidin-4-yl)-1′,2′-dihydrospiro[cyclobutane-1,3′-pyrrolo[3,2-c]pyridin]-6′-yl)acetamide], the IC50 in assay [1] was ≥ 1000 nM; at JH2 domain of human Tyk2 (JH2 biochemical assay), 10 to 100 nM; in assay [2], ≥ 1000 nM; in assay [3] (stimulated 15 minutes) it was ≥ 1000 nM.

As for `CC(=O)Nc1cc2c(cn1)C1(CC1)CN2c1cc(C2CC2)nc(C(C)(F)F)n1` [Example 21, N-(1′-(6-cyclopropyl-2-(1,1-difluoroethyl)pyrimidin-4-yl)-1′,2′-dihydrospiro[cyclopropane-1,3′-pyrrolo[3,2-c]pyridin]-6′-yl)acetamide], the half-inhibitory concentration (IC50) in assay [1] is ≥ 1000 nM; at JH2 domain of human Tyk2 (JH2 biochemical assay) it was ≤ 10 nM; in assay [2] it was ≥ 1000 nM; in assay [3] (stimulated 15 minutes), 10 to 100 nM.

In the case of `Cc1cc(N2CC3(CC3)c3cnc(NC(N)=O)cc32)nc(C(C)(F)F)n1` [Example 308, 1-(1′-(2-(1,1-difluoroethyl)-6-methylpyrimidin-4-yl)-1′,2′-dihydrospiro[cyclopropane-1,3′-pyrrolo[3,2-c]pyridin]-6′-yl)urea], the IC50 in assay [1] is ≥ 1000 nM; on JH2 domain of human Tyk2 (JH2 biochemical assay) it was ≤ 10 nM; in assay [2] it was ≥ 1000 nM; in assay [3] (stimulated 15 minutes), ≤ 10 nM.

With `COC1(c2cccc(N3CC4(CC4)c4cnc(NC(C)=O)cc43)n2)CCOC1` (stereo not drawn) [Example 18, N-(1′-(6-(3-methoxytetrahydrofuran-3-yl)pyridin-2-y1)-1′,2′-dihydrospiro[cyclopropane-1,3′-pyrrolo[3,2-c]pyridin]-6′-yl)acetamide], the half-maximal inhibitory concentration (IC50) in assay [1] is ≥ 1000 nM; on JH2 domain of human Tyk2 (JH2 biochemical assay) it was ≤ 10 nM; in assay [2] it was ≥ 1000 nM; in assay [3] (stimulated 15 minutes) it was 10 to 100 nM.

As to `CCc1cc(N2CC3(CC3)c3cnc(NC(C)=O)cc32)nc(C23COC(C2)C3)n1` [Example 322, N-(1′-(2-(2-oxabicyclo[2.1.1]hexan-4-yl)-6-ethylpyrimidin-4-yl)-1′,2′-dihydrospiro[cyclopropane-1,3′-pyrrolo[3,2-c]pyridin]-6′-yl)acetamide], the concentration for half-maximal inhibition (IC50) was ≥ 1000 nM in assay [1], ≤ 10 nM at JH2 domain of human Tyk2 (JH2 biochemical assay), ≥ 1000 nM in assay [2] and 10 to 100 nM in assay [3] (stimulated 15 minutes).

Take `COc1cc(N2CC3(CC3)c3cnc(NC(C)=O)cc32)nc(C(C)(F)F)c1` [Example 9, N-(1′-(6-(1,1-difluoroethyl)-4-methoxypyridin-2-yl)-1′,2′-dihydrospiro[cyclopropane-1,3′-pyrrolo[3,2-c]pyridin]-6′-yl)acetamide]: the half-maximal inhibitory concentration (IC50) in assay [1] was ≥ 1000 nM; at JH2 domain of human Tyk2 (JH2 biochemical assay), ≤ 10 nM; in assay [2], ≥ 1000 nM; in assay [3] (stimulated 15 minutes), 10 to 100 nM.

In the case of `CC(=O)Nc1cc2c(cn1)C(C)(C)CN2c1nccc(C(C)(F)F)n1` [Example 39, N-(1-(4-(1,1-difluoroethyl)pyrimidin-2-yl)-3,3-dimethyl-2,3-dihydro-1H-pyrrolo[3,2-c]pyridin-6-yl)acetamide], the IC50 (in assay [1]; at JH2 domain of human Tyk2 (JH2 biochemical assay); in assay [2]; in assay [3] (stimulated 15 minutes)) was ≥ 1000 nM in each case.

As to `COc1cc(N2CC3(CC3)c3cnc(NC(C)=O)cc32)nc(C(C)(F)F)n1` [Example 1, N-(1′-(2-(1,1-difluoroethyl)-6-methoxypyrimidin-4-yl)-1′,2′-dihydrospiro[cyclopropane-1,3′-pyrrolo[3,2-c]pyridin]-6′-yl)acetamide], the half-inhibitory concentration (IC50) is ≥ 1000 nM in assay [1], ≤ 10 nM on JH2 domain of human Tyk2 (JH2 biochemical assay), ≥ 1000 nM in assay [2] and 100 to 1000 nM in assay [3] (stimulated 15 minutes).

`CC(=O)Nc1cc2c(cn1)C1(CCN(C)CC1)CN2c1cccc(C(C)(F)F)n1` [Example 276, N-(1′-(6-(1,1-difluoroethyl)pyridin-2-yl)-1-methyl-1′,2′-dihydrospiro[piperidine-4,3′-pyrrolo[3,2-c]pyridin]-6′-yl)acetamide trifluoroacetate]: the half-maximal inhibitory concentration (IC50) (in assay [1]; at JH2 domain of human Tyk2 (JH2 biochemical assay); in assay [2]) was ≥ 1000 nM each time.

Regarding `CC(=O)Nc1cc2c(cn1)C1(CC1)CN2c1cc(C)cc(N2CC(O)C(O)C2)n1` (stereo not drawn) [Example 187, N-(1′-(6-(3,4-dihydroxypyrrolidin-1-yl)-4-methylpyridin-2-yl)-1′,2′-dihydrospiro[cyclopropane-1,3′-pyrrolo[3,2-c]pyridin]-6′-yl)acetamide], the IC50 on JH2 domain of human Tyk2 (JH2 biochemical assay) is 100 to 1000 nM; in assay [3] (stimulated 15 minutes) it was ≥ 1000 nM.

With `CC(=O)Nc1cc2c(cn1)C1(CC1)CN2c1cc(C)nc(N2CCC3(CC2)COC3)n1` [Example 228, N-(1′-(6-methyl-2-(2-oxa-7-azaspiro[3.5]nonan-7-yl)pyrimidin-4-yl)-1′,2′-dihydrospiro[cyclopropane-1,3′-pyrrolo[3,2-c]pyridin]-6′-yl)acetamide trifluoroacetate], the 50% inhibitory concentration (IC50) on JH2 domain of human Tyk2 (JH2 biochemical assay) was 100 to 1000 nM; in assay [3] (stimulated 15 minutes) it was ≥ 1000 nM.

As to `CC(=O)Nc1cc2c(cn1)C1(CC1)CN2c1cc(C)nc(C2(C)CC2)n1` [Example 69, N-(1′-(6-methyl-2-(1-methylcyclopropyl)pyrimidin-4-yl)-1′,2′-dihydrospiro[cyclopropane-1,3′-pyrrolo[3,2-c]pyridin]-6′-yl)acetamide], the 50% inhibitory concentration (IC50) on JH2 domain of human Tyk2 (JH2 biochemical assay) was ≤ 10 nM; in assay [3] (stimulated 15 minutes), 100 to 1000 nM.

Consider `CC(=O)Nc1cc2c(cn1)C1(CC1)CN2c1cc(C)cc(-c2cnn(C3CC3)c2)n1` [Example 264, N-(1′-(6-(1-cyclopropyl-1H-pyrazol-4-yl)-4-methylpyridin-2-yl)-1′,2′-dihydrospiro[cyclopropane-1,3′-pyrrolo[3,2-c]pyridin]-6′-yl)acetamide trifluoroacetate], for which the IC50 at JH2 domain of human Tyk2 (JH2 biochemical assay) was 10 to 100 nM; in assay [3] (stimulated 15 minutes), ≥ 1000 nM.

As for `CC(=O)Nc1cc2c(cn1)C1(CC1)CN2c1cc(NCC2CC2)nc(C(C)(F)F)n1` [Example 154, N-(1′-(6-((cyclopropylmethyl)amino)-2-(1,1-difluoroethyl)pyrimidin-4-yl)-1′,2′-dihydrospiro[cyclopropane-1,3′-pyrrolo[3,2-c]pyridin]-6′-yl)acetamide trifluoroacetate], the concentration for half-maximal inhibition (IC50) (at JH2 domain of human Tyk2 (JH2 biochemical assay); in assay [3] (stimulated 15 minutes)) was ≤ 10 nM each time.

Regarding `CC(=O)Nc1cc2c(cn1)C1(CC1)CN2c1cc(-c2cnn(CC(F)(F)F)c2)nc(C(C)(F)F)n1` [Example 392, N-(1′-(2-(1,1-difluoroethyl)-6-(1-(2,2,2-trifluoroethyl)-1H-pyrazol-4-yl)pyrimidin-4-yl)-1′,2′-dihydrospiro[cyclopropane-1,3′-pyrrolo[3,2-c]pyridin]-6′-yl)acetamide], the IC50 is ≤ 10 nM at JH2 domain of human Tyk2 (TR-FRET probe displacement, JH2 domain of human Tyk2) and ≤ 10 nM in assay [3] (then stimulated 15 minutes).

In the case of `CC(=O)Nc1cc2c(cn1)C1(CC1)CN2c1cc(C)nc(N2CC(C)(C#N)C2)n1` [Example 221, N-(1′-(2-(3-cyano-3-methylazetidin-1-yl)-6-methylpyrimidin-4-yl)-1′,2′-dihydrospiro[cyclopropane-1,3′-pyrrolo[3,2-c]pyridin]-6′-yl)acetamide], the figures for the IC50 (on JH2 domain of human Tyk2 (JH2 biochemical assay); in assay [3] (stimulated 15 minutes)) were ≤ 10 nM and 100 to 1000 nM, respectively.

As to `COCCC1(C#N)CN(c2cc(C)cc(N3CC4(CC4)c4cnc(NC(C)=O)cc43)n2)C1` [Example 199, N-(1′-(6-(3-cyano-3-(2-methoxyethyl)azetidin-1-yl)-4-methylpyridin-2-yl)-1′,2′-dihydrospiro[cyclopropane-1,3′-pyrrolo[3,2-c]pyridin]-6′-yl)acetamide], the half-maximal inhibitory concentration (IC50) at JH2 domain of human Tyk2 (JH2 biochemical assay) was 10 to 100 nM; in assay [3] (stimulated 15 minutes) it was ≥ 1000 nM.

Consider `CCNc1cc(N2CC3(CC3)c3cnc(NC(C)=O)cc32)nc(C(C)(F)F)n1` [Example 167, N-(1′-(2-(1,1-difluoroethyl)-6-(ethylamino)pyrimidin-4-yl)-1′,2′-dihydrospiro[cyclopropane-1,3′-pyrrolo[3,2-c]pyridin]-6′-yl)acetamide trifluoroacetate], for which the figures for the 50% inhibitory concentration (IC50) (at JH2 domain of human Tyk2 (JH2 biochemical assay); in assay [3] (stimulated 15 minutes)) were ≤ 10 nM and 100 to 1000 nM, respectively.
